In test [1] the target is T1, Protein deacetylase HDAC6 (Homo sapiens) (UniProt Q9UBN7).
T1 sequence (whole entry): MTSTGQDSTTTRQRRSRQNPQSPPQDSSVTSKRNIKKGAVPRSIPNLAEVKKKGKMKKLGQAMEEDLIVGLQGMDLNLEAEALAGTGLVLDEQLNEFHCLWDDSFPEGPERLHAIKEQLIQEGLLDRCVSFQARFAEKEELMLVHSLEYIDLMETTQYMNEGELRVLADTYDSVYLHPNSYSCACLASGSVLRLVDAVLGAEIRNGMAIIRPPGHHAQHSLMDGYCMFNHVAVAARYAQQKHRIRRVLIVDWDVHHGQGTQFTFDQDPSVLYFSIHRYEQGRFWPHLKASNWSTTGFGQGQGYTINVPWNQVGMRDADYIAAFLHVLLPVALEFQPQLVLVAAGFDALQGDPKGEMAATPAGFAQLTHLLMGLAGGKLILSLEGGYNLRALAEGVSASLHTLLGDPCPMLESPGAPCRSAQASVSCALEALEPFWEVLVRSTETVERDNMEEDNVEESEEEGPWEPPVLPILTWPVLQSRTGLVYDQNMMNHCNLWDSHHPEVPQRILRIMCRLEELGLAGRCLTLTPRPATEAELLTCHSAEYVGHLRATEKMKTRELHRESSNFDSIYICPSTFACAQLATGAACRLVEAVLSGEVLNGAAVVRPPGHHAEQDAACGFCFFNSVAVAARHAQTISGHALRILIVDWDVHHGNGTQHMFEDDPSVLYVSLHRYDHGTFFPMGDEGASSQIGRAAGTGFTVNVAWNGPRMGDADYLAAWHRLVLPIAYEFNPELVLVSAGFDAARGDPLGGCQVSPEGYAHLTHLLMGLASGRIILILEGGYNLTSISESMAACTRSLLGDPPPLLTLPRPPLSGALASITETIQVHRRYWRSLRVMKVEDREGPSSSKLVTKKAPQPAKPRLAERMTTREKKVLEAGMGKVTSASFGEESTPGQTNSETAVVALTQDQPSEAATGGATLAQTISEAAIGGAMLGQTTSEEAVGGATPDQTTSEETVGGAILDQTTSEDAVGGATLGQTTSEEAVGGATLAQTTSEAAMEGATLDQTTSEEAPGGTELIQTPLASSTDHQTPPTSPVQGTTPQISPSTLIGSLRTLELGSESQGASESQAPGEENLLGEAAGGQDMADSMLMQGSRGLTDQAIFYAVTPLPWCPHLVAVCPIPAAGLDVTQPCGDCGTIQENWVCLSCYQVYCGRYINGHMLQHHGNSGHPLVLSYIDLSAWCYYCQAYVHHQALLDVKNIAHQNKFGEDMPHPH
The test can be described thus: Inhibition of full-length recombinant human HDAC6 expressed in insect High5 cells using Boc-Lys(-acetyl)-AMC as substrate incubated for 3 hrs. The arrangement: concentration or dose not given beside the values. To be noted: concentration not given here.

Test [2] has as its target T2, Tyrosine-protein phosphatase non-receptor type 1 (Homo sapiens) (UniProt P18031).
T2 sequence (whole entry): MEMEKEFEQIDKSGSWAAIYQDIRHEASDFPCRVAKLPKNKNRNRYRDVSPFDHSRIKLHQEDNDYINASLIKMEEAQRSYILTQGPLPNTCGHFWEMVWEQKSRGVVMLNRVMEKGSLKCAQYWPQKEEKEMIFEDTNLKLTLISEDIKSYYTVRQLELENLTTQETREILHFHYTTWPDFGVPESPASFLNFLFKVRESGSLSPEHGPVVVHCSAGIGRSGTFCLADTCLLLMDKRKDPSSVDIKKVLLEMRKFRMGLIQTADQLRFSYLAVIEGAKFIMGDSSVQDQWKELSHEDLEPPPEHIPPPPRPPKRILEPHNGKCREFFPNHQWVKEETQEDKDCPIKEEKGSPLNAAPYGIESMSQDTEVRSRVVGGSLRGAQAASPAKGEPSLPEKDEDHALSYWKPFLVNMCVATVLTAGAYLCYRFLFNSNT
Kind of test: Inhibition of PTP1B (unknown origin) using pNPP as substrate at 20 ug/ml measured for 3 mins by colorimetric assay.

Test [3] has as its target Tyrosine-protein phosphatase non-receptor type 1, PTP1B (Homo sapiens) (UniProt P18031). Kind of test: Inhibition of human PTP1B protein expressed in insect High5 cells by Z-LYTE kinase assay. As to conditions: concentration not given here.
The target in test [4] is T3, Aurora kinase A (Homo sapiens) (UniProt O14965).
T3 sequence (whole entry): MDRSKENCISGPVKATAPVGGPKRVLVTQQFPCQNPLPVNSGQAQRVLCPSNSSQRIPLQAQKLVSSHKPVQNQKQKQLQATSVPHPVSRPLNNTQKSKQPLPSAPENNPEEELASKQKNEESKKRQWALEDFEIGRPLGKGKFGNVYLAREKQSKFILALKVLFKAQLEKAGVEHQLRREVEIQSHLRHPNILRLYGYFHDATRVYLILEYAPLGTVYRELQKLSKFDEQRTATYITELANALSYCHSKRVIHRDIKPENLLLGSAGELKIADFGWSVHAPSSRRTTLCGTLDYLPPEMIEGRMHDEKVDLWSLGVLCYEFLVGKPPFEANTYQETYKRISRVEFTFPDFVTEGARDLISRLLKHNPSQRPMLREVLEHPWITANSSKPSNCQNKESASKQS
Kind of test: Inhibition of aurora kinase A (unknown origin) incubated for 60 mins by fluorescence analysis.

The structures appear in SMILES notation.

As usually defined, the inhibition is the relative decrease from the control value, in per cent.

As for `COC(=O)[C@@H]1C[C@@]23C(=O)[C@H]4[C@H](O)[C@H]5N(C[C@@H](CCC6=C2[C@@H]1CC6)[C@]53C)C[C@H]4C`, the inhibition in test [1] was less than 10%.
For `C[C@@H]1CN2C[C@H]3CC[C@H](O)[C@@H]4C5=C(C[C@@]46C(=O)[C@H]1C[C@@H]2[C@@]36C)C(=O)OCC5`, the inhibition in test [1] was less than 10%.
The same measure, in the same setting: then `C[C@@H]1CN2C[C@H]3CC[C@]4(O)C[C@H](O)C5=C4[C@@]4(CC5)C(=O)[C@H]1C[C@@H]2[C@@]34C`, with less than 10%; and `COC(=O)[C@@H]1C[C@@]23C(=O)[C@H]4C[C@H]5N(C[C@@H](CCC6=C2[C@@H]1C[C@H]6O)[C@]53C)C[C@H]4C`, with less than 10%; and `COC(=O)[C@@H]1C[C@@]23C(=O)[C@H]4C[C@H]5N(C[C@@H](C[C@@H](O)C6=C2[C@@H]1CC6)[C@]53C)C[C@H]4C`, with less than 10%.
As to `C[C@@H]1CN2C[C@H]3CC[C@@H]4C(=O)C=C5CC[C@@]6(C(=O)[C@H]1C[C@@H]2[C@@]36C)[C@@]54O`, the inhibition is less than 10% in test [1], 40% in test [2] and 44% in test [3].
As for `COC(=O)C1=C2C[C@H](O)C3=C2[C@@]2(C1)C(=O)[C@H]1C[C@H]4N(C[C@@H](CC3)[C@]42C)C[C@H]1C`, the inhibition in test [1] is less than 10%; in test [2], 40%.
On to `COC(=O)C1=C2CCC3=C2[C@@]2(C1)C(=O)[C@H]1C[C@@]4(O)N(C[C@@H](CC3)[C@@]24C)C[C@H]1C`, for which the inhibition in test [1] is less than 10%; in test [4], greater than 30%.
As for `C[C@@H]1CN2C[C@H]3CCC4=C5C(=CC[C@@]56C(=O)[C@H]1C[C@@H]2[C@@]36C)[C@@H](O)C4`, the inhibition in test [1] was less than 10%.
Still for that read-out and setting: the result for `C[C@@H]1CN2C[C@H]3CC[C@H](O)[C@@H]4C(CCO)=C(C(=O)O)C[C@@]45C(=O)[C@H]1C[C@@H]2[C@@]35C` reads less than 10%; that for `COC(=O)[C@@H]1C[C@@]23C(=O)[C@H]4C[C@H]5N(C[C@@H](C[C@H](O)C6=C2[C@@H]1CC6)[C@]53C)C[C@H]4C`, less than 10%; that for `COC(=O)[C@@H]1C[C@@]23C(=O)[C@H]4C[C@H]5N(C[C@H]4C)C[C@@H]([C@@H](O)CC4=C2[C@@H]1CC4)[C@]53C`, less than 10%.
Regarding `COC(=O)[C@@H]1C[C@@]23C(=O)[C@H]4C[C@H]5N(C[C@H]4C)C[C@@H]([C@H](O)CC4=C2[C@@H]1CC4)[C@]53C`, in test [1], the inhibition is less than 10%.

The values above are taken from ChEMBL document CHEMBL3739294, “Hydroxylated Daphniphyllum Alkaloids from Daphniphyllum himalense” (J Nat Prod, 2015).
